Source: patent publication US20140128385A1 (NOVARTIS AG, priority 2011, published 2014)
Where a name gives a salt, the structure may show the parent alone.

These compounds were tested against T1, BACE-2 (Homo sapiens, UniProt Q9Y5Z0) (assay: assay for inhibition of BACE-2).
T1 construct: Recombinant BACE-2 (extracellular domain, expressed in baculovirus and purified using standard methods); made in house
T1 sequence (Q9Y5Z0 63-473 limits assumed): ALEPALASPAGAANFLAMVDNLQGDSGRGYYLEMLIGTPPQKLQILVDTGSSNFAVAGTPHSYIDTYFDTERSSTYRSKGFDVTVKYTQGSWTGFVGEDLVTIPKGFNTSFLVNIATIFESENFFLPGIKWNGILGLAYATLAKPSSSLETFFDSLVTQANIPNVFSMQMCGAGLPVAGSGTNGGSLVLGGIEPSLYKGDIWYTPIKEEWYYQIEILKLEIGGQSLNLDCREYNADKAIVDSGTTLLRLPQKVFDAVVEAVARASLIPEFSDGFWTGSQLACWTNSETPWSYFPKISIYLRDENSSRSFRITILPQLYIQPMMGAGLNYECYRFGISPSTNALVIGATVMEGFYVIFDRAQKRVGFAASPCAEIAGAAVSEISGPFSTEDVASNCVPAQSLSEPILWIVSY
Assay type: biochemical

Structure (SMILES) | IC50 [nM]
[2H]C([2H])([2H])OCc1cc(OC([2H])([2H])[2H])cnc1C(=O)Nc1ccc(F)c([C@]2(C(F)F)COCC(N)=N2)c1 [Example 224] | 103
N#Cc1cnc(C(=O)Nc2ccc(F)c([C@]3(C(F)F)COCC(N)=N3)c2)c(N)c1 [Example 225] | 27
NC1=N[C@@](c2cc(NC(=O)c3ncc(C(F)F)cc3N)ccc2F)(C(F)F)COC1 [Example 226] | 90
[2H]C([2H])([2H])Oc1cnc(C(=O)Nc2ccc(F)c([C@]3(C(F)F)COCC(N)=N3)c2)c(C)c1 [Example 227] | 64
Cc1cc(C#N)cnc1C(=O)Nc1cc(F)c(F)c([C@]2(C(F)F)COCC(N)=N2)c1 [Example 228, 5-Cyano-3-methyl-pyridine-2-carboxylic acid [3-((R)-5-amino-3-difluoromethyl-3,6-dihydro-2H-[1,4]oxazin-3-yl)-4,5-difluoro-phenyl]-amide] | 61
[2H]C([2H])([2H])Oc1cnc(C(=O)Nc2cc(F)c(F)c([C@]3(C(F)F)COCC(N)=N3)c2)c(Cl)c1 [Example 229, 3-Chloro-5-trideuteromethoxy-pyridine-2-carboxylic acid [3-((R)-5-amino-3-difluoromethyl-3,6-dihydro-2H-[1,4]oxazin-3-yl)-4,5-difluoro-phenyl]-amide] | 73
Cc1cc(OC(F)F)cnc1C(=O)Nc1ccc(F)c([C@]2(C)CO[C@@](C)(C(F)(F)F)C(N)=N2)c1 [Example 238] | 12
C#CCOc1cnc(C(=O)Nc2ccc(F)c([C@]3(C)CO[C@@](C)(C(F)(F)F)C(N)=N3)c2)c(N)n1 [Example 239] | 15
C[C@@]1(c2cc(NC(=O)c3ncc(C(F)F)cc3N)ccc2F)CO[C@@](C)(C(F)(F)F)C(N)=N1 [Example 243, 3-Amino-5-difluoromethyl-pyridine-2-carboxylic acid [3-((3R,6R)-5-amino-3,6-dimethyl-6-trifluoromethyl-3,6-dihydro-2H-[1,4]oxazin-3-yl)-4-fluoro-phenyl]-amide] | 11
[2H]C([2H])([2H])OCc1cc(C#N)cnc1C(=O)Nc1ccc(F)c([C@]2(C)CO[C@@](C)(C(F)(F)F)C(N)=N2)c1 [Example 245, 5-Cyano-3-trideuteromethoxymethyl-pyridine-2-carboxylic acid [3-((3R,6R)-5-amino-3,6-dimethyl-6-trifluoromethyl-3,6-dihydro-2H-[1,4]oxazin-3-yl)-4-fluoro-phenyl]-amide] | 13
[2H]C([2H])([2H])OC([2H])([2H])c1cc2c(Cl)c[nH]c2nc1C(=O)Nc1ccc(F)c([C@]2(C)CO[C@@](C)(C(F)(F)F)C(N)=N2)c1 [Example 247, 3-Chloro-5-trideuteromethoxy-dideuteromethyl-1H-pyrrolo[2,3-b]pyridine-6-carboxylic acid [3-((3R,6R)-5-amino-3,6-dimethyl-6-trifluoromethyl-3,6-dihydro-2H-[1,4]oxazin-3-yl)-4-fluoro-phenyl]-amide] | 44
C[C@@]1(c2cc(NC(=O)c3ncc(C(F)(F)F)cc3Cl)ccc2F)CO[C@@](C)(C(F)(F)F)C(N)=N1 [Example 248, 3-Chloro-5-trifluoromethyl-pyridine-2-carboxylic acid [3-((3R,6R)-5-amino-3,6-dimethyl-6-trifluoromethyl-3,6-dihydro-2H-[1,4]oxazin-3-yl)-4-fluoro-phenyl]-amide] | 22
Cc1cc(OC(F)F)cnc1C(=O)Nc1ccc(F)c(C2(C)COC(CF)(CF)C(N)=N2)c1 (stereo not shown) [Example 253, 5-Difluoromethoxy-3-methyl-pyridine-2-carboxylic acid [3-(5-amino-6,6-bis-fluoromethyl-3-methyl-3,6-dihydro-2H-[1,4]oxazin-3-yl)-4-fluoro-phenyl]-amide] | 426
Cc1cc(OC(F)F)cnc1C(=O)Nc1ccc(F)c([C@]2(C)COC(CF)(CF)C(N)=N2)c1 [Example 254, 5-Difluoromethoxy-3-methyl-pyridine-2-carboxylic acid [3-((R)-5-amino-6,6-bis-fluoromethyl-3-methyl-3,6-dihydro-2H-[1,4]oxazin-3-yl)-4-fluoro-phenyl]-amide] | 59
Cc1cc(C#N)cnc1C(=O)Nc1ccc(F)c([C@]2(CF)COC(CF)(CF)C(N)=N2)c1 [Example 256, 5-Cyano-3-methyl-pyridine-2-carboxylic acid [3-((R)-5-amino-3,6,6-tris-fluoromethyl-3,6-dihydro-2H-[1,4]oxazin-3-yl)-4-fluoro-phenyl]-amide] | 18

Results, then the compound that gave them:

IC50 [nM] | Structure (SMILES)
8 | [2H]c1nc(C(=O)Nc2cc(F)c(F)c([C@]3(C(F)F)COCC(N)=N3)c2)c(C([2H])([2H])[2H])c([2H])c1Cl [Example 230, 4,6-Dideutero-5-chloro-3-trideuteromethyl-pyridine-2-carboxylic acid [3-((R)-5-amino-3-difluoromethyl-3,6-dihydro-2H-[1,4]oxazin-3-yl)-4,5-difluoro-phenyl]-amide]
6 | C[C@@]1(c2cc(NC(=O)c3ncc(C#N)cc3Cl)ccc2F)CO[C@@](C)(C(F)(F)F)C(N)=N1 [Example 231, 3-Chloro-5-cyano-pyridine-2-carboxylic acid [3-((3R,6R)-5-amino-3,6-dimethyl-6-trifluoromethyl-3,6-dihydro-2H-[1,4]oxazin-3-yl)-4-fluoro-phenyl]-amide hydrochloride]
7 | COc1cnc(C(=O)Nc2ccc(F)c([C@]3(C)CO[C@@](C)(C(F)(F)F)C(N)=N3)c2)c(Cl)c1 [Example 232, 3-Chloro-5-methoxy-pyridine-2-carboxylic acid [3-((3R,6R)-5-amino-3,6-dimethyl-6-trifluoromethyl-3,6-dihydro-2H-[1,4]oxazin-3-yl)-4-fluoro-phenyl]-amide hydrochloride]
2 | Cc1cc(Cl)cnc1C(=O)Nc1ccc(F)c([C@]2(C)CO[C@@](C)(C(F)(F)F)C(N)=N2)c1 [Example 234, 5-Chloro-3-methyl-pyridine-2-carboxylic acid [3-((3R,6R)-5-amino-3,6-dimethyl-6-trifluoromethyl-3,6-dihydro-2H-[1,4]oxazin-3-yl)-4-fluoro-phenyl]-amide hydrochloride]
2 | C[C@@]1(c2cc(NC(=O)c3ncc(Cl)cc3F)ccc2F)CO[C@@](C)(C(F)(F)F)C(N)=N1 [Example 235, 5-Chloro-3-fluoro-pyridine-2-carboxylic acid [3-((3R,6R)-5-amino-3,6-dimethyl-6-trifluoromethyl-3,6-dihydro-2H-[1,4]oxazin-3-yl)-4-fluoro-phenyl]-amide hydrochloride]
6 | Cl.[2H]C([2H])([2H])Oc1cnc(C(=O)Nc2ccc(F)c([C@]3(C)CO[C@@](C)(C(F)(F)F)C(N)=N3)c2)c(Cl)c1 [Example 236, 3-Chloro-5-trideutero-methoxy-pyridine-2-carboxylic acid [3-((3R,6R)-5-amino-3,6-dimethyl-6-trifluoromethyl-3,6-dihydro-2H-[1,4]oxazin-3-yl)-4-fluoro-phenyl]-amide hydrochloride]
7 | Cc1nc(C(=O)Nc2ccc(F)c([C@]3(C)CO[C@@](C)(C(F)(F)F)C(N)=N3)c2)c(C)o1 [Example 237, 2,5-Dimethyl-oxazole-4-carboxylic acid [3-((3R,6R)-5-amino-3,6-dimethyl-6-trifluoromethyl-3,6-dihydro-2H-[1,4]oxazin-3-yl)-4-fluoro-phenyl]-amide hydrochloride]
8 | Cc1cc(C(F)F)cnc1C(=O)Nc1ccc(F)c([C@]2(C)CO[C@@](C)(C(F)(F)F)C(N)=N2)c1 [Example 241, 5-Difluoromethyl-3-methyl-pyridine-2-carboxylic acid [3-((3R,6R)-5-amino-3,6-dimethyl-6-trifluoromethyl-3,6-dihydro-2H-[1,4]oxazin-3-yl)-4-fluoro-phenyl]-amide hydrochloride]
11 | C[C@@]1(c2cc(NC(=O)c3ncc(C(F)F)nc3N)ccc2F)CO[C@@](C)(C(F)(F)F)C(N)=N1 [Example 242, 3-Amino-5-difluoromethyl-pyrazine-2-carboxylic acid [3-((3R,6R)-5-amino-3,6-dimethyl-6-trifluoromethyl-3,6-dihydro-2H-[1,4]oxazin-3-yl)-4-fluoro-phenyl]-amide]
9 | COc1cc(C(F)F)c(C(=O)Nc2ccc(F)c([C@]3(C)CO[C@@](C)(C(F)(F)F)C(N)=N3)c2)nn1 [Example 244, 4-Difluoromethyl-6-methoxy-pyridazine-3-carboxylic acid [3-((3R,6R)-5-amino-3,6-dimethyl-6-trifluoromethyl-3,6-dihydro-2H-[1,4]oxazin-3-yl)-4-fluoro-phenyl]-amide hydrochloride]
8 | C[C@@]1(c2cc(NC(=O)c3ncc(C(F)F)cc3Cl)ccc2F)CO[C@@](C)(C(F)(F)F)C(N)=N1 [Example 246, 3-Chloro-5-difluormethyl-pyridine-2-carboxylic acid [3-((3R,6R)-5-amino-3,6-dimethyl-6-trifluoromethyl-3,6-dihydro-2H-[1,4]oxazin-3-yl)-4-fluoro-phenyl]-amide-amide]
3 | Cc1cc(F)cnc1C(=O)Nc1ccc(F)c([C@]2(C)CO[C@@](C)(C(F)(F)F)C(N)=N2)c1 [Example 249, 5-Fluoro-3-methyl-pyridine-2-carboxylic acid [3-((3R,6R)-5-amino-3,6-dimethyl-6-trifluoro-methyl-3,6-dihydro-2H-[1,4]oxazin-3-yl)-4-fluoro-phenyl]-amide]
9 | Cc1cc(Cl)cnc1C(=O)Nc1ccc(F)c(C2(C)COC(CF)(CF)C(N)=N2)c1 (stereo not shown) [Example 255, 5-Chloro-3-methyl-pyridine-2-carboxylic acid [3-(5-amino-6,6-bis-fluoromethyl-3-methyl-3,6-dihydro-2H-[1,4]oxazin-3-yl)-4-fluoro-phenyl]-amide]
